Results taken from patent US20180344725A1, “QUINOLONE CHALCONE COMPOUNDS AND USES THEREOF” (priority 2015, published 2018).

Legend:
Type in all cases: cell-based
HeLa cells [1] = assay: EdU incorporation (DNA replication); conditions: 3.0 μM for 24 hours; sham control 25.4%
Protocol: (§1) CTR-17 caused neither impediment of DNA replication nor DNA damage. […] The detection of EdU incorporated into DNA was carried out by fluorescence microscopy. […] Etoposide (50.0 μM) was used as a positive control.

HEK293T = assay: Immunofluorescent staining: centrosomes and chromosome segregation; conditions: 3 μM
Protocol: Cells on coverslips placed on the bottom of 35 mm tissue culture plates or 6-well clustered dishes were treated for 12-24 hours with the CTR compounds to be tested. Subsequently, the cells were fixed with 100% methanol for 15 minutes and washed with 1×PBS three times. Cells were then “blocked” with 3% BSA or 1% (v/v) FBS plus 1×PBST (1×PBS buffer containing 0.1% (v/v) Triton X-100 or 0.2% Tween 20), and incubated overnight at 4° C. with primary antibodies, with gentle agitation. Unbound primary antibodies were washed off with PBST, and a secondary antibody was added for 1 hour in the dark. Secondary antibodies were conjugated to Alexa 488 or 568. DNA was counterstained with DRAQ5 or DAPI. Subsequently, coverslips were washed three times with 1×PBST for 10 minutes each, followed by mounting them onto slides with 90% glycerol in 1×PBS. Each slide was visualized with a Carl Zeiss 510 Meta laser scanning microscope or an Axioscope. Image analysis was done with an LSM image examiner equipped with the microscopes (Carl Zeiss, Toronto, ON, Canada).
The cancer-specific increase of mitotic cells in response to CTR-17 was correlated with the accumulation of cells with monopolar centrosomes and abnormal chromosome alignment/segregation (FIG. 11, Table 5). Cells were either sham-treated or treated with 3.0 μM CTR-17 for 12 hours or 24 hours, followed by analyses of cell cycle progression, centrosome abnormalities, and chromosome alignment/segregation. […] The mitotic index was determined by fluorescence microscopic analysis of at least 200 cells for each cell type, and data was expressed as percentage mean±S.E.M. of at least two independent experiments.

HeLa cells [2] = assay: γ-H2AX immunostaining (DNA damage); conditions: 3.0 μM
Protocol: as §1

ANBL6-BR = assay: Antiproliferation, bortezomib-resistant cells; conditions: ANBL6-BR (bortezomib-resistant multiple myeloma)
Protocol: All of the cell lines used were purchased from ATCC and cultured in RPMI-1640 supplemented with 10% fetal bovine serum and antibiotics (100 units penicillin/100 μg/ml streptomycin), unless stated otherwise. 1845B5 and MCF-10A non-cancer breast cell lines were cultured in DME/F12 medium supplemented with 10% fetal bovine serum, antibiotics and growth factors. […] The human small cell lung carcinoma H69 cell line and its multidrug-resistant MRP1-overexpressing isogenic H69AR cell line were purchased from ATCC. […] H69 cells grow as large multi-cell aggregates, making it difficult to accurately count cell numbers. […] The IL-6 dependent bortezomib-resistant ANBL6-BR cell line was further supplemented with 1 ng/ml of IL-6. The MCF10AT1 and MCF10CA1a cell lines are isogenic to the MCF10A cell line, and obtained from Dr. Valerie Weaver at the Center for Bioengineering and Tissue Regeneration, UCSF, CA, USA. […] Cell growth (inhibition) was calculated by the following formula: % cells proliferation=[(AT-CT)/(ST-CT)]×100 wherein AT=absorbance of treated cells, CT=absorbance of negative control cells, and ST=absorbance of sham treated cells. […] The combinational index (CI) was calculated as described previously (Chou 2006). […] CI values were determined from four independent experiments.

RPMI-8226-BR = assay: Antiproliferation, bortezomib-resistant cells; conditions: RPMI-8226-BR (bortezomib-resistant)
Protocol: For (anti)proliferation assays, 4,000-5,000 cells/well of the 96-well clustered dish were incubated for 16 hours, as described previously (Hu et al., 2008; Skehan et al., 1990). After 16 hours, culture medium was replaced with fresh medium containing different dilutions of test compounds dissolved in DMSO. Some wells were treated with 100 μl of 10% trichloroacetic acid (TCA) as a negative control and sham (medium with dimethyl sulfoxide; DMSO) treated cells were used as a positive control. After 72 hours post-incubation, medium was removed and cells were fixed with 10% TCA at 4° C. for 1 hour. […] SRB stained macromolecules were determined at a 540 nm wavelength using an automated plate reader (Synergy H4 Hybrid Multi-Mode Microplate Reader, BioTek, Winooski, Vt.). Cell growth (inhibition) was calculated by the following formula: […]
wherein AT=absorbance of treated cells, CT=absorbance of negative control cells, and ST=absorbance of sham treated cells. IC50 values were calculated from sigmoidal dose-response curves generated by two independent biological replicates, with quadruplicate in each set by using Graph Pad Prism v.5.04 software. […] The combinational index (CI) was calculated as described previously (Chou 2006). […] CI values were determined from four independent experiments.

COc1ccccc1C(=O)/C=C/c1cc2ccccc2[nH]c1=O [CTR-17, (E)-3-(3-(2-Methoxyphenyl)-3-oxoprop-1-enyl)quinolin-2(1H)-one]
EdU positive cells (HeLa cells [1]): 22.0% | ACS (abnormal chromosome segregation) (HEK293T; 12 h post-treatment): 48.2 ± 10.1% of total mitotic cells | Monopolar centrosome (HEK293T; 12 h post-treatment): 50.5 ± 10.1% of total mitotic cells | ACS (abnormal chromosome segregation) (HEK293T; 24 h post-treatment): 0.1 ± 0.0% of total mitotic cells | Monopolar centrosome (HEK293T; 24 h post-treatment): 93.2 ± 3.4% of total mitotic cells | DNA damage (γ-H2AX) (HeLa cells [2]): does not cause any notable DNA damage

COc1ccc2[nH]c(=O)c(/C=C/C(=O)c3ccccc3OC)cc2c1 [CTR-20, (E)-6-Methoxy-3-(3-(2-methoxyphenyl)-3-oxoprop-1-enyl) quinolin-2(1H)-one]
IC50 (ANBL6-BR): 760 ± 280 nM | IC50 (RPMI-8226-BR): 280 ± 30 nM
